From publication PMC7804859, “A metabolically stable apelin-17 analog decreases AVP-induced antidiuresis and improves hyponatremia” (Nature Communications, 2021)
Several values for one entry are separate records, joined by “and”; a condition that tells them apart may be missing. Identical values can stand only once.

Assays:
[1] = system: kidneys of normonatremic Sprague-Dawley rats; test: Kidney histology after 4 days of s.c. administration in rats; format: in vivo, rat; set-up: Tubular injury score: scale not given here
Method: 278 Kidneys were fixed in paraformaldehyde 4% overnight and processed for paraffin embedding.
279 Sections of 4 μm thickness were made and stained with the periodic acid-Schiff (PAS)
280 reagent and counterstained with hematoxylin. Histological analyzes were performed by a
281 trained nephrologist (AF), blinded of the treatment group. Tubular injury score was scored
283 vacuolization, epithelial cell shedding, and denuded tubular basement membrane, as follows:
285 calculated from twenty viewing fields selected randomly from the outer medulla and
286 corticomedullary junction and were examined at ×400 magnification. […]

[2] = target: T1, rat apelin-R-EGFP (Rattus norvegicus, UniProt Q9JHG3); test: Inhibition of forskolin-induced cAMP production in CHO cells stably expressing rat apelin-R-EGFP (HTRF); format: cell-based; settings: 5 µmol/l forskolin, 30 min 20 °C
T1 construct: expressed in transfected cells
T1 sequence (Q9JHG3 1-377): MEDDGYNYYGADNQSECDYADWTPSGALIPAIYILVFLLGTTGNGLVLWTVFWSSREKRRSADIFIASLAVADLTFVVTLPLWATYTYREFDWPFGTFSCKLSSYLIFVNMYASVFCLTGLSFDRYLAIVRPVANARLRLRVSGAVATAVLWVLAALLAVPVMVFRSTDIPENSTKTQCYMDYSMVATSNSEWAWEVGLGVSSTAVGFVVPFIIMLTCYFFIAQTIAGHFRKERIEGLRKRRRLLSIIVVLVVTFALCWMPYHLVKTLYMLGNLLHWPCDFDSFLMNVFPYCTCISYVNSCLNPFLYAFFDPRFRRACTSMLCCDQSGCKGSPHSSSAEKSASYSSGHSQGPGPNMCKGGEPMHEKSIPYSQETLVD
Method: (§1) 152 Supplementary Methods
(§2) 154 We quantified cAMP production with the cAMP dynamic 2 assay kit (Cisbio Bioassays,
(§3) 155 Codolet, France), which is based on homogeneous time-resolved fluorescence (HTRF)
(§4) 156 technology, as previously described 1. For cells expressing the Apelin-R, 2000 CHO cells/well
(§5) 157 stably expressing rat apelinR-EGFP (clone B70) were added to the 384-well plate and
158 stimulated with 5 µmol/l forskolin (FSK) and various concentrations (0.01 pmol/l to 100 […]
(§6) Cells were then lysed, and
(§7) 165 cAMP levels were determined in accordance with the kit manufacturer’s instructions.
(§8) 166 Stimulation was performed in stimulation buffer-IBMX (SBI) (Hank’s balanced salt solution
(§9) 167 (HBSS-Life Technology), 5 mmol/l Hepes, 0.1% BSA stabilizer (Perkin Elmer), 1 mmol/l
168 isobutylmethylxanthine (IBMX, Sigma Aldrich, pH 7.4)). […]

[3] = system: phosphorylated AQP-2 in mpkCCD cells; test: dDAVP-induced phosphorylation of AQP-2 in mpkCCD cells (immunofluorescence); format: cell-based, mouse; settings: 10 µmol/l compound with 10 nmol/l dDAVP, 1 h
Method: mpkCCD cells were seeded in 12 mm Transwell filters of 0.4 μm pore size at a density of 160,000 cells/cm^2 and were grown for 5 days. Twenty-four hours before the experiment, cells were starved with depletion media (1:1 (vol/vol) Ham’s F12:DMEM medium). […] The cell culture medium was removed and cells were fixed with 4% formaldehyde in 1× PBS for 10 min at 4 °C, and permeabilized with 0.5% PBS Triton X-100 for 5 min at 20 °C. Then, inserts were incubated in 5% PBS-BSA for 60 min at 20 °C to block non-specific protein binding. Inserts were subjected to immunostaining with a rabbit anti-AQP-2-pS269 antibody (dilution, 1/200, Phospho Solution, Cliniscience, France) and a mouse monoclonal anti-occludin antibody (dilution, 1/200, Santa Cruz, Cliniscience, France) for 16 h at 4 °C. Inserts were then incubated with goat anti-rabbit Alexa Fluor Plus 647 or goat anti-mouse Alexa Fluor plus 488 secondary antibodies (dilution, 1/500, Invitrogen) for 60 min at 20 °C. […] Slides were analyzed in the x–y and x–z axes under a ×63/1.4 Oil WD: 0.17 mm objective with a Zeiss Axioobserver Z1 inverted spinning-disk microscope equipped with a camera sCMOS Hamamatsu 2048 × 2048/pixel size: 6.45 × 6.45 µm^2 and the lasers (405 nm; 100 mW, 491 nm; 150 mW and 642 nm; 100 mW). […]

[4] = system: mpkCCD cells; test: dDAVP-induced cAMP production in mpkCCD cells; format: cell-based, mouse; settings: 10 µmol/l compound, 10 nmol/l dDAVP, 60 min 37 °C
Method: as §1, §2, §3, §4, §5
158 stimulated with 5 µmol/l forskolin (FSK) and various concentrations (0.01 pmol/l to 100
For cells expressing the V2-R, HEK-
160 293T cells were transiently transfected with the human V2-R (cDNA Resource Center), after
161 48h, 4000 cells/well were added to white 384-well optiplates and stimulated either with 5
as §6, §7, §8, §9
168 isobutylmethylxanthine (IBMX, Sigma Aldrich, pH 7.4)). For cAMP assay with mpkCCD
169 cells, the cells were grown on 12 mm Transwell filters (0.4 μm pore size, Corning Costar,
170 Cambridge, MA) until they reach confluency (4-5 days). For forskolin experiments, culture
171 media was replaced with SBI in apical and basolateral compartments. After 30 min of […]

[5] = Brain apelin-immunoreactive levels in rats (RIA); format: in vivo, rat
Method: (§10) 187 Apelin radioimmunoassay
(§11) 189 until use for apelin RIA.
(§12) The supernatants were collected and
(§13) The samples were dried and dissolved in
(§14) 201 centrifuged (17000 x g, 4°C, 20 min). The supernatant (4 ml) was collected, and mixed with
(§15) The columns were then treated as described in
(§16) Samples (0.1ml) w ere mixed with 125I-
(§17) 212 used this radioligand instead of [Glp65, Nle75, Tyr77] [125I]-apelin13 since the substitution of
(§18) 214 derivatives as described previously by 3,4.
(§19) 216 incubated for 10 min at room temperature.

[6] = system: hyponatremic rats (AVP 30 ng/h); test: Effects of LIT01-196 and tolvaptan in rat model of AVP-induced hyponatremia; format: in vivo
Method: Meloxicam was administered postoperatively for analgesia. Animals were then individually housed in metabolic cages (Techniplast), and given a semi-liquid diet consisting of 25 ml Gel-Diet Breeding-10 (SAFE, Augy, France) mixed with 25 ml tap water per day, with water available ad libitum. Animal weight, water, and food consumption were measured daily. Urine was collected daily, urinary electrolytes (Na^+, K^+, Cl^−) were determined with an ISE 3000 (Caretium Medical Instruments, Shenzhen, China) and urinary osmolality was measured with a Cryobasic 1 osmometer (Astori Tecnica, Poncarale, Italy). Blood samples were collected on ice, before implantation of the osmotic minipump, and before drug administration, under isoflurane anesthesia, from the tail vein (4 µl of lithium heparinate (1600 IU/ml) for 400 µl of blood). The blood samples were immediately centrifuged (4 °C, 2600 × g, 20 min), and plasma electrolyte (Na^+, K^+, Cl^−) levels were quantified with an ISE 3000. On the last day of the experiment, blood was also collected on ice by intracardiac puncture. This blood sample was collected into lithium heparinate under isoflurane anesthesia; plasma electrolyte levels were determined as described above and the animals were immediately killed by carbon monoxide inhalation.

[7] = system: control Sprague-Dawley rats; test: Effects of i.v. administration on urine output, urine osmolality and water intake in normonatremic rats; format: in vivo, rat
Method: Male Swiss mice (25–30 g, 4–6 weeks) and male Sprague–Dawley rats (210–230 g, 6–8 weeks) were obtained from Charles River Laboratories (L’Arbresle, France). While housed in our animal facility, they were given free access to normal chow and water, and they were maintained under 12-h light/dark cycles throughout the study. Temperature was maintained between 18 and 22 °C, and humidity between 40 and 60%. When required for i.v. administration, a right femoral venous catheter was implanted in the rats, by tunneling under the skin, under isoflurane anesthesia (4% for induction, 2% for maintenance). Meloxicam (Metacam) was administered postoperatively (1 mg/kg s.c.) for analgesia.

[8] = Brain apelin-immunoreactive levels in mice (RIA); format: in vivo, mouse
Method: Then cells were treated with 10
Results are expressed in femtomoles of cAMP produced
as §10, §11, §12, §13, §14, §15, §16, §17, §18, §19
(§20) This antiserum identified the apelin present in the
Most of the apelin in human plasma was […]

[9] = system: hyponatremic rats; test: Plasma AVP and apelin-IR levels in hyponatremic rats (RIA); format: in vivo, rat
Method: as §10, §11, §12, §13, §14, §15, §16, §17, §18, §19, §20
Most of the apelin in human plasma was
252 TechMedILL platfor m (Illkirch) reviewed and approved by the agriculture ministry regulating
256 Male Sprague-Dawley rats were killed by decapitation, and trunk blood was collected on ice
257 (into 50 µl of 0.3M EDTA (pH 7.4) per 1 ml of blood). Samples were centrifuged (2,600 x g,
258 4°C, 20 min), and the resulting plasma was split into 500 µl aliquots, to which we added 168
259 µl of 3N HCl before storage at -80°C. The AVP RIA was performed as previously described
260 5, using a specific AVP-[Arg8] antibody (final dilution, 1/4.5) and [125I]-(Tyr2Arg8)-AVP
261 (2200 Ci/mmol, Perkin-Elmer, Billerica, MA; 15000 dpm) as a tracer. […]

[10] = 15 nmol/kg i.v., control rats, 24 h, n = 6

CSCC[C@H](NC(=O)[C@@H]1CCCN1C(=O)CNC(=O)[C@H](CCCCN)NC(=O)[C@H](Cc1c[nH]cn1)NC(=O)[C@H](CO)NC(=O)[C@H](CC(C)C)NC(=O)[C@H](CCCNC(=N)N)NC(=O)[C@@H]1CCCN1C(=O)[C@H](CCCNC(=N)N)NC(=O)[C@H](CCC(N)=O)NC(=O)[C@H](CCCNC(=N)N)NC(=O)[C@H](CCCNC(=N)N)NC(=O)[C@H](Cc1ccccc1)NC(=O)[C@H](CCCCN)NC(=O)CCC(F)(F)C(F)(F)C(F)(F)C(F)(F)C(F)(F)C(F)(F)C(F)(F)C(F)(F)F)C(=O)N1CCC[C@H]1C(=O)N[C@@H](Cc1ccccc1)C(=O)O [LIT01-196]
Tubular injury score ([1]; 900 nmol/kg SC, individual animals (Fig. S5C source data)): 0.105 and 0.1 and 0.05 and 0.15 and 0 | Glomerular injury score ([1]; 900 nmol/kg SC, individual animals (Fig. S5D source data)): 0.09091 and 0.1053 and 0.1429 and 0.04762 and 0.05 | histological analysis of the kidneys ([1]; 900 nmol/kg s.c. for 4 consecutive days, rats): did not reveal any abnormality | IC50 [2]: 1.7 ± 0.5 nM | phosphorylation of AQP-2 (phospho-AQP-2 immunolabelling) [3]: decrease in the phosphorylation of AQP-2 | inhibition of dDAVP-induced cAMP production [4]: 79% | crossing of the blood-brain barrier ([5]; rats and mice, 30 min after s.c. 900 nmol/kg): does not cross the BBB and does not enter the brain | Brain apelin ([5]; rats, 30 min after 900 nmol/kg SC, single animals): 1.581 and 0.931 and 1.563 and 1.024 and 1.473 | apelin-IR levels in the brain ([5]; rats, 30 min after s.c. 900 nmol/kg, saline 1.2 ± 0.15, n = 5): 1.3 ± 0.14 pmol/brain | increase in urine output 24 h after s.c. administration ([6]; 180 nmol/kg s.c., rats receiving 30 ng/h AVP): 1.5 ± 2.0 ml/24 h/100 g | urine osmolality, lower than AVP + saline group ([6]; 900 nmol/kg s.c. on days 0 and 1): 58% | urine output, higher than AVP + saline group ([6]; 900 nmol/kg s.c. on days 0 and 1, average days 1 to 2, n = 9): 185% | plasma sodium concentration on day 2 ([6]; 900 nmol/kg s.c. on days 0 and 1, saline 100 ± 2): 110 ± 5 mmol/L | plasma sodium concentration on day 1 ([6]; 900 nmol/kg s.c., 24 h after first administration, saline 100 ± 2): 109 ± 5 mmol/L | body weight change from baseline versus saline ([6]; 900 nmol/kg s.c., AVP-treated animals): similar | water consumption (including water in diet), higher than AVP + saline group ([6]; 900 nmol/kg s.c., average days 1 to 2): 177% | food consumption ([6]; 900 nmol/kg s.c., hyponatremic rats): significant increase | increase in urine output 24 h after s.c. administration ([6]; 900 nmol/kg s.c., rats receiving 30 ng/h AVP and liquid diet): 11.7 ± 2.3 ml/24 h/100 g | increase in urine output 24 h after s.c. administration ([6]; 2400 nmol/kg s.c., rats receiving 30 ng/h AVP): 9.2 ± 4.1 ml/24 h/100 g | decrease in urine osmolality relative to saline [7, 10]: 38% | increase in urine output relative to saline [7, 10]: 95% | water intake ([7]; i.v., K17F 400 nmol/kg, LIT01-196 15 nmol/kg, 24 hours): did not induce a significant change | apelin.brain ([8]; LIT01-196 900 nmol/kg, individual animals (Fig. S2C source data)): 0.257 and 0.271 and 0.513 and 0.58 | apelin-IR levels in the brain ([8]; mice, 30 min after s.c. 900 nmol/kg, saline 0.391 ± 0.045, n = 5): 0.440 ± 0.073 pmol/brain | plasma AVP levels versus AVP-treated rats receiving saline ([9]; 900 nmol/kg s.c., 3 h): No significant difference | increase in plasma apelin-IR/AVP ratio relative to saline ([9]; 900 nmol/kg s.c., 3 h, hyponatremic rats): 518% | plasma apelin-IR material levels, higher than AVP + saline ([9]; 900 nmol/kg s.c., 3 h, n = 5): 372% | Plasma AVP ([9]; AVP 30 ng/h rats, LIT01-196 900 nmol/kg SC, individual animals (Fig. 6A source data)): 26.2192 and 47.0941 and 28.2654 and 46.4247 and 26.8381 | Plasma apelin ([9]; AVP 30 ng/h rats, LIT01-196 900 nmol/kg SC, individual animals (Fig. 6B source data)): 2578 and 2160 and 2508 and 1740 and 2599 | Apelin to AVP ratio ([9]; AVP 30 ng/h rats, LIT01-196 900 nmol/kg SC, individual animals (Fig. 6C source data)): 98.309 and 45.8759 and 88.7295 and 37.4882 and 96.8538
